From patent US12533330B2, “(2S)-2-aminopentanethioic s-acid for use as medicament and in therapy of amyotrophic lateral sclerosis” (MASSEY VENTURES LIMITED, priority 2020, dated 2026)

Columns and labels:
Type in all cases: in vivo
[1] = system: FUS[1-359]-tg mouse line (FUS-tg); experiment: Malondialdehyde (MDA) concentration in spinal cord of FUS-tg mice; details: 50 mg/kg/day via drinking water, one-way ANOVA and Tukey's test
From the text: A transgenic FUS[1-359]-tg mouse line (FUS-tg) was used to test the efficacy of the substance of formula (I) in the therapy of amyotrophic lateral sclerosis according to the guidelines set for ALS preclinical studies. Ludolph A C et al. Guidelines for preclinical animal research in ALS/MND: A consensus meeting. Amyotroph Lateral Scler. 2010; 11:38-45. Mutations in DNA/RNA-binding factor (fused-in-sarcoma) FUS cause ALS in humans. The FUS-tg mouse model recapitulates core hallmarks of human ALS in the spinal cord, including neuroinflammation and neurodegeneration, ensuing muscle atrophy and paralysis. Shelkovnikova T A et al. Fused in sarcoma (FUS) protein lacking nuclear localization signal (NLS) and major RNA binding motifs triggers proteinopathy and severe motor phenotype in transgenic mice. J Biol Chem. 2013; 288:25266-25274. Lutz C. Mouse models of ALS: Past, present and future. Brain Res. 2018; 1693:1-10. de Munter J et al. Neuro-Cells therapy improves motor outcomes and suppresses inflammation during experimental syndrome of amyotrophic lateral sclerosis in mice. CNS Neurosci Ther. 2020; 26(5):504-517. […]
The concentration of malondialdehyde (MDA), a marker of oxidative stress, was measured in the spinal cord of FUS-tg mice treated with vehicle or substance of formula (I) in comparison with wild type controls. […]

[2] = system: FUS[1-359]-tg mouse line (FUS-tg); experiment: Onset of paralysis in FUS-tg mouse ALS model; details: for percentage of FUS-tg mice with signs of paralysis on day 95: FUS-tg male mice, six weeks via drinking water from age nine weeks, (I) and (IX) 50 mg/kg/day, Riluzole 8 mg/kg
From the text: (§1) A transgenic FUS[1-359]-tg mouse line (FUS-tg) was used to test the efficacy of the substance of formula (I) in the therapy of amyotrophic lateral sclerosis according to the guidelines set for ALS preclinical studies. Ludolph A C et al. Guidelines for preclinical animal research in ALS/MND: A consensus meeting. Amyotroph Lateral Scler. 2010; 11:38-45. Mutations in DNA/RNA-binding factor (fused-in-sarcoma) FUS cause ALS in humans. The FUS-tg mouse model recapitulates core hallmarks of human ALS in the spinal cord, including neuroinflammation and neurodegeneration, ensuing muscle atrophy and paralysis. […] J Biol Chem. 2013; 288:25266-25274. Lutz C. Mouse models of ALS: Past, present and future. […] CNS Neurosci Ther. 2020; 26(5):504-517.
(§2) The substance (I) and the substance (IX) represent (2S)- and (2R)-enantiomers of 2-aminopentanethioic S-acid, respectively. The (2R)-enantiomer (IX) was included to the study to clarify importance of (S)- and (R)-configurations of 2-aminopentanethioic S-acid during the therapy of ALS.
The onset of paralysis, a core ALS symptom, was recorded for each FUS-tg mouse.

[3] = system: FUS[1-359]-tg mouse line (FUS-tg); experiment: Rotarod test in FUS-tg mouse ALS model; details: week 5, via drinking water, one-way ANOVA and Tukey's test
From the text: as §1, §2

CCC[C@H](N)C(=O)S [substance (I), (2S)-2-aminopentanethioic S-acid] was tested, and the “MDA levels in the spinal cord vs. vehicle-treated FUS-tg mice” value [1] was “significant reduction of the MDA levels”, the “percentage of FUS-tg mice with signs of paralysis on day 95” value [2] was 16% and the “significance of percentage of mice with signs of paralysis on the 95th day vs. vehicle” value ([2]; FUS-tg mice, day 95, Fisher test vs. vehicle) was “significantly lower”. The “latency to fall in the rotarod test vs. vehicle-treated FUS-tg mice” value [3] was “significantly longer latency to fall”.

CCC[C@@H](N)C(=O)S [substance (IX), (2R)-2-aminopentanethioic S-acid, reference compound] was tested, and the “percentage of FUS-tg mice with signs of paralysis on day 95” value [2] was 43% and the “latency to fall in the rotarod test vs. vehicle-treated FUS-tg mice” value [3] was “no significant difference”.
